This is an account of results in ChEMBL document CHEMBL1201862, “PubChem BioAssay data set” (2004).

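Step 1: Grow cells in 96-well plates. Step 2: Expose to compound for 48 hours at 5 concentrations. Step 3: Interpolate endpoints linearly; if unreached, use highest concentration. Abbreviation: GI50, concentration required for 50% inhibition of growth.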 Active and inactive are the calls of the source. No stated cut-off is given here; in the data, active = GI50 up to about 1.1 µM and inactive = higher.

Some test systems named below: HOP-18; LXFL 529; XF498; SNB-78; KM-20L2; DMS-114; DMS-273; DLD-1; RXF 631.
Experiment in all cases: NCI tumour cell line growth inhibition, 48 h

Take `CC(=O)O[C@]12CCCCCC1C1(O)C(O)CCC[C@H]12` (some centres undefined): the GI50 in the test with HOP-18, with LXFL 529, with XF498, with SNB-78, in the test with KM-20L2 and with DMS-114 was > 100 µM (inactive) in each case. Also, the GI50 with DMS-273 is > 100 µM (inactive).

As for `CC1(c2ccccc2Cl)C(C#N)C(=O)NC(=O)C1C#N` (centres undefined), the GI50 in the test with DLD-1 is 68.7 µM (inactive); in the test on LXFL 529 it was 27 µM (inactive); with SNB-78 it was 55.6 µM (inactive); in the test with KM-20L2 it was 36.1 µM (inactive); in the test on DMS-114 it was 30.9 µM (inactive); in the test on DMS-273 it was 33.6 µM (inactive).

Take `O=C1CCC(c2ccccc2)C(O)(C(=O)O)C1` (centres undefined): the GI50 in the test on HOP-18, in the test with RXF 631, in the test on DLD-1, with LXFL 529, in the test with SNB-78 and in the test with KM-20L2 was > 100 µM (inactive) throughout. Further, the GI50 in the test with DMS-273 was > 100 µM (inactive).

For `CC1(Br)C(=O)NC(=O)N(C2CC(N=[N+]=[N-])C(CO)O2)C1N=[N+]=[N-]` (centres undefined), the GI50 with RXF 631, in the test with DLD-1, in the test on LXFL 529, with XF498, in the test with SNB-78 and with KM-20L2 was > 100 µM (inactive) in each case. The GI50 in the test with DMS-114 and in the test on DMS-273 was > 100 µM (inactive) in each case.

For `COC1=CC(=O)C(O)=C(CC2(C)C(C)CCC3(C)C2CCCC3(C)C)C1=O` (centres undefined), the GI50 in the test with HOP-18 was 2.65 µM (inactive); with RXF 631, 25.7 µM (inactive); in the test with DLD-1, 5.53 µM (inactive); with LXFL 529, 5.41 µM (inactive); in the test on XF498, 4.14 µM (inactive); in the test on SNB-78, 18.1 µM (inactive). Moreover, the GI50 in the test with KM-20L2 is 2.42 µM (inactive); in the test on DMS-114, 2.57 µM (inactive); with DMS-273 it was 3.47 µM (inactive).

For `O=C(Nc1cccc(Cc2cccc(NC(=O)c3ccccc3)c2)c1)c1ccccc1`, the GI50 in the test on HOP-18 is 34.3 µM (inactive); in the test with DLD-1 it was 91.8 µM (inactive); with LXFL 529, 28.7 µM (inactive); with KM-20L2 it was > 100 µM (inactive); in the test with DMS-114, 10.6 µM (inactive); in the test on DMS-273, 55 µM (inactive).

For the compound `CSc1snc2sc3c(Cl)nnnc3c12`, the GI50 was 19.1 µM (inactive) with HOP-18; 16.1 µM (inactive) in the test on RXF 631; 10 µM (inactive) in the test with DLD-1; 2.11 µM (inactive) in the test with LXFL 529; 14.4 µM (inactive) with XF498; 13.8 µM (inactive) in the test on SNB-78. The GI50 in the test with KM-20L2 is 14 µM (inactive); in the test on DMS-114, 13.2 µM (inactive); with DMS-273 it was 11.4 µM (inactive).

Turning to `CC(=O)/C(=C\c1cccc([N+](=O)[O-])c1)C(=O)Nc1ccccc1C`, the GI50 in the test on HOP-18, in the test on DLD-1, in the test with LXFL 529, with XF498, with SNB-78 and in the test with KM-20L2 was > 100 µM (inactive) each time. For the same compound, in the test with DMS-114, the GI50 was > 100 µM (inactive).

With `O=C(COC(=O)c1cccc2c(=O)c3ccccc3[nH]c12)Nc1ccc(S(=O)(=O)Nc2ncccn2)cc1`, the GI50 was 94 µM (inactive) in the test with RXF 631; > 100 µM (inactive) with DLD-1; 47.5 µM (inactive) with LXFL 529; 26.5 µM (inactive) with XF498; 30.6 µM (inactive) in the test on SNB-78; 65.9 µM (inactive) with KM-20L2. Further, the figures for the GI50 with DMS-114 and with DMS-273 were 43.4 µM (inactive) and 27.5 µM (inactive), respectively.

With `C=CCC(C(=O)OC)C1(C(=O)OC)c2[nH]c3ccccc3c2CCN1Cc1ccccc1` (centres undefined), the GI50 in the test on DLD-1, in the test with KM-20L2 and in the test on DMS-114 was > 100 µM (inactive) each time.

With `COc1ccc(/C=c2/sc3n(c2=O)NC2(CCC(C)CC2)NN=3)cc1` (centres undefined), the GI50 with DLD-1 was > 100 µM (inactive); in the test with LXFL 529, > 100 µM (inactive); in the test on XF498 it was > 100 µM (inactive); with SNB-78, > 100 µM (inactive); in the test with KM-20L2, > 100 µM (inactive); in the test with DMS-114, 50 µM (inactive). The GI50 in the test with DMS-273 is > 100 µM (inactive).

Turning to `CC1(C)C=N[N+]2(C)C3C=CC(CC3)C12` (centres undefined), the GI50 in the test on HOP-18, in the test on RXF 631, in the test with DLD-1, with LXFL 529, with SNB-78 and in the test on KM-20L2 was > 100 µM (inactive) each time. Besides, in the test with DMS-114, the GI50 is > 100 µM (inactive).

Turning to `CN1C(c2ccccc2)CC(=NOCc2ccccc2)CC1c1ccccc1` (centres undefined), the GI50 was 48 µM (inactive) with HOP-18; 31.2 µM (inactive) in the test on RXF 631; 46.7 µM (inactive) in the test on DLD-1; 16.8 µM (inactive) in the test on LXFL 529; > 100 µM (inactive) in the test with XF498; 42.5 µM (inactive) in the test with SNB-78. Further, the results for the GI50 in the test with KM-20L2, with DMS-114 and with DMS-273 were > 80.2 µM (inactive), 17.7 µM (inactive) and 33.7 µM (inactive), respectively.

`COc1ccc([Se]c2ccc(OC)cc2OC)c(OC)c1`: the GI50 with HOP-18 was 20.2 µM (inactive); in the test with RXF 631 it was 22.1 µM (inactive); in the test on DLD-1 it was 17.4 µM (inactive); in the test on LXFL 529 it was 30.1 µM (inactive); in the test with XF498 it was 24.9 µM (inactive); in the test with SNB-78, 22.6 µM (inactive). Also, the figures for the GI50 with KM-20L2, in the test on DMS-114 and with DMS-273 were 8.38 µM (inactive), 3.44 µM (inactive) and 3.85 µM (inactive), respectively.

With `COC(=O)C1C2CC3C(OC(=O)C31)C2I` (centres undefined), the GI50 in the test on SNB-78, in the test with KM-20L2, with DMS-114 and in the test with DMS-273 was > 100 µM (inactive) throughout.

As to `O=C(OCN1C(=O)C2C3C=CC(C2C1=O)C1C2C(=O)N(COC(=O)C4CCCN4)C(=O)C2C31)C1CCCN1` (centres undefined), the GI50 in the test on HOP-18 was > 100 µM (inactive); in the test on RXF 631 it was > 64.7 µM (inactive); in the test with DLD-1, 34.2 µM (inactive); in the test on LXFL 529, 78.7 µM (inactive); in the test with XF498 it was > 75.9 µM (inactive); with SNB-78, > 100 µM (inactive). Further, the results for the GI50 with KM-20L2, in the test with DMS-114 and with DMS-273 were 64.1 µM (inactive), 25.9 µM (inactive) and 38.5 µM (inactive), respectively.

Turning to `C=CC1=C(C)c2cc3[nH]c(cc4nc(cc5[nH]c(cc1n2)c(C)c5CCC(=O)N(CC)CC)C(CCC(=O)N(CC)CC)=C4C)c(C)c3C=C`, the GI50 is < 0.01 µM (active) in the test with HOP-18; > 100 µM (inactive) in the test on DLD-1; > 100 µM (inactive) in the test on LXFL 529; > 100 µM (inactive) in the test on SNB-78; > 100 µM (inactive) in the test with KM-20L2.

Turning to `Cc1ccc(-c2cc(-c3ccco3)c(C#N)c(=O)n2C2OC(OC(=O)c3ccccc3)C(OC(=O)c3ccccc3)C2OC(=O)c2ccccc2)cc1` (centres undefined), the GI50 in the test with HOP-18 was > 100 µM (inactive); with RXF 631, > 100 µM (inactive); in the test with DLD-1 it was > 100 µM (inactive); in the test with LXFL 529 it was > 100 µM (inactive); with SNB-78, 83.6 µM (inactive); in the test on KM-20L2, > 100 µM (inactive). Also, the GI50 is 38.6 µM (inactive) in the test on DMS-114 and 97.1 µM (inactive) in the test on DMS-273.

On to `O=C1OCC(C(=O)c2cccc(O)c2)C1=O` (centres undefined), for which the GI50 in the test on HOP-18, in the test with RXF 631, with DLD-1, in the test with LXFL 529, in the test on SNB-78 and in the test on KM-20L2 was > 100 µM (inactive) throughout. Besides, the GI50 in the test on DMS-114 and in the test on DMS-273 was > 100 µM (inactive) each time.

Take `CCC1(N=[N+]=[N-])C(=O)c2ccccc2N(C)C1=O` (centres undefined): the GI50 is 82.2 µM (inactive) in the test with HOP-18; > 100 µM (inactive) with DLD-1; > 100 µM (inactive) with LXFL 529; > 100 µM (inactive) with SNB-78; > 100 µM (inactive) in the test with KM-20L2; > 100 µM (inactive) in the test with DMS-114. Further, the GI50 in the test with DMS-273 was > 100 µM (inactive).

Consider `Cc1ccc(S(=O)(=O)N(/N=C/C=C/c2ccccc2)c2nnc(-c3ccccc3)c(-c3ccccc3)n2)cc1`, for which the GI50 is 21.9 µM (inactive) with DLD-1; 16.8 µM (inactive) in the test on SNB-78; 17.9 µM (inactive) in the test on KM-20L2; 16.3 µM (inactive) in the test on DMS-114; 18.9 µM (inactive) in the test on DMS-273.

As to `O=C1NC(=O)C(C(=O)C(=O)Nc2ccc(Cl)cc2Cl)C(=O)N1`, the GI50 in the test on RXF 631, in the test on DLD-1, with LXFL 529, in the test on SNB-78, with KM-20L2 and in the test on DMS-114 was > 100 µM (inactive) in each case.

As for `O=C(O)CNc1cc(-c2ccccc2)nc(NCC(=O)O)n1`, the GI50 with HOP-18, with RXF 631, with DLD-1, in the test with LXFL 529, in the test on XF498 and with SNB-78 was > 100 µM (inactive) throughout. The GI50 with KM-20L2, in the test with DMS-114 and in the test with DMS-273 was > 100 µM (inactive) throughout.

For the compound `O=S(=O)(O)C(O)/C=C/c1ccccc1` (centres undefined), the GI50 in the test with HOP-18 is > 100 µM (inactive); in the test on DLD-1, > 100 µM (inactive); in the test on LXFL 529 it was > 100 µM (inactive); with KM-20L2 it was > 100 µM (inactive); in the test with DMS-114, 65.2 µM (inactive); with DMS-273, > 100 µM (inactive).

Regarding `COc1c(C)c2c(c(O)c1C/C=C(\C)CCC(=O)O)C(=O)OC2` [MYCOPHENOLIC ACID], the GI50 is 16.1 µM (inactive) with HOP-18; 0.57 µM (active) with DLD-1; 0.693 µM (active) with LXFL 529; 0.845 µM (active) in the test with DMS-114; 0.35 µM (active) with DMS-273.
